In patent US6459001B1 (Aventis Pharma S.A., priority 1997, dated 2002):
Counter-ions that a name gives are not always drawn.

Legend:
[1] = biological target: human αvβ3 receptor (Homo sapiens, UniProt P05106+P06756); assay: Displacement of the binding Vitronectin/Vitronectin receptor (αvβ3), competition test; conditions: human vitronectin coated plates, 3 hours at ambient temperature, read-out: Competition test Vn/VR (αvβ3) binding IC50 en
Procedure: 1—Study of the Products of the Invention on the Displacement of the Binding: Vitronectin/Vitronectin Receptor (αvβ3) […]
MaxiSorp 96-well plates are coated overnight at 4° C., with 100 μl of human Vitronectin (cf Yatohgo et al. Cell., Structure and fraction 13: 281-292 (1988)) at 2 μg/ml, (Dilution in coating buffer).
The next day, the wells are emptied and the ligands (Vitronectin) are then fixed (see fixing buffer) for one hour at ambient temperature under gentle agitation.
The wells are washed six times (see washing buffer), then the following are added to each well and in this order:
40 μl of incubation buffer, 10 μl of the dilution of the product to be tested, (the products are diluted in a 50/50 mixture of DMSO-H2O) 50 μl of human αvβ3 receptor (cf Pytela et al. Methods Enzymol (1987) 144:475) (dilution in incubation buffer, to be adapted according to the receptor batch and according to the ligand).
The ligand, the human αvβ3 receptor and the products to be studied are incubated for 3 hours at ambient temperature under gentle agitation.
The wells are again washed six times, then incubated for 2 hours at ambient temperature under gentle agitation, in the presence of 100 μl of anti-receptor, 4B12-HRP antibody coupled to a peroxidase (the 4B12-HRP antibody is diluted in an incubation buffer. The dilution is to be adapted according to the receptor batch).
This kit contains a bottle A of substrate (3,3′,5,5′-tetramethylbenzidine at 0.4 g/l) and a bottle B (H2O2 at 0.02% in a citrate/citric acid buffer). Extemporaneously, a volume of A is mixed with a volume of B, then the reaction mixture is distributed at a rate of 100 μl/well. The enzymatic reaction develops over […] for Vitronectin/αvβ3, then its development is stopped by the addition of 100 μl of 1M phosphoric acid. The optical density is measured at 450 nm. […]
coating buffer: Carbonate 0.05 M, NaOH pH 9.6 fixing buffer: PBS containing 0.5% BSA (pH 7.4) washing buffer: PBS containing 0.05% Tween 20 (pH 7.4)
Expression of the Results:
The following curve is traced: the percentage of binding of the human vitronectin as a function of the logarithm of the concentration of each product tested.
For each product the IC50 is determined according to the following formula:
BO=Maximum binding in the absence of any product
Bmin=Minimum binding in the presence of the highest concentration of product.

[2] = system: bone resorption (skullcaps of new-born mice); assay: Test of mouse calvarium: bone resorption by release of 45Ca from skullcaps of new-born mice, ex-vivo; conditions: inhibition of bone resorption (45Ca release) in half-calvaria, 48 hours contact; for inhibition at 10 µM: Mus musculus, read-out: Mouse cavarium % inhibition at 10 μM
Description: 2—Test of Mouse Calvarium
Injection of a tracer dose of ^45Ca (CaCl2) to gestating female mice in order to study bone resorption by measuring the release of ^45Ca from the skullcaps of new-born mice.
Determination of the activity of a molecule on bone resorption, ex-vivo study.
Vehicle: DMSO, H2O/BSA (0.1%)
Dose: Variable ([…] in screening).
Echistatin (ref. H-9010-BACHEM)
^45Ca in the form of an aqueous solution of CaCl2—ref. CES3 AMERSHAM or NEZ-013 NEN.
Vehicle: Physiological serum
Dose: 25 μCi/mouse/0.4 ml
CMRL 1066 with phenol red (ref. 041-01535 M/GIBCO) supplemented by 0.1% BSA and penicillin/streptomycin.
1) Injection of ^45Ca to Gestating Mice (OF1, Strain: Swiss)
a) Preparation of the Labelled Solution:
190 μl of the mother solution of calcium at 2 mci/ml is added to 6 ml of physiological serum.
On the 17th day of gestation the mice receive 400 μl of this solution by intravenous route, that is 25 μCi/mouse.
2) Removal of the Tissue (Skullcap (Calvarium))
Six days after their birth the new-born mice are decapitated, then the head is recovered, and the skin is incised from the nape to the front. The skullcap is removed by cutting it out with scissors, and using a punch two exactly identical half-calvaria (one on the left and one on the right) are cut from the parietal bones. One will serve as the control, the other will be used to test the product to be studied.
Each half calvarium is placed in a well of a 24-well plate, containing 1 ml of medium, on a 100 μm polyethylene and nylex support, in order to avoid all contact with the bottom of the well.
After 24 hours, the polyethylene supports carrying the calvaria are transferred into new 24-well plates containing 1 ml of fresh medium and the products to be tested or their solvents. 200 μl of medium from the first plates is removed from each well and a first count of the radioactivity is carried out (value A).
This change of medium allows all the mechanical stress associated with the removal to be eliminated.
48 hours after putting the tissues in contact with the studied products, 200 μl of medium is removed from each well and counted (value B), so as to determine the quantity of ^45Ca released from the medium during the so-called resorption phase.
The calvarium is then completely demineralized in 1 ml of 5% trichloracetic acid and after digestion, 200 μl is also removed and counted so as to determine the quantity of calcium remaining in the bone (value C). Expression of the results
A % of bone resorption is calculated for each half-calvarium (each well) in the following manner:
% bone resorption=dpm B/dpm (A+B+C)×100
The sum of dpm A+B+C represents the quantity of ^45Ca incorporated in each bone part on the day of removal.
In order to measure the effect of a product, the ratio of the percentage of bone resorption of the treated well and of the corresponding control well is calculated for each point. The value found called the resorption index is comprised between 0 and 1 if the product inhibits bone resorption and is >1 if the product potentializes it. The average of the 6 indices (since there are 6 points/group) of each product is then calculated which gives one index/product. If this index is subtracted from the value 1, the inhibitory power of the product is obtained, which can be expressed as a percentage.
Furthermore a statistical test (Student T-test) is carried out by comparing point/point the individual resorption indices.

| Compound | IC50 [1] [nM] | Mouse cavarium % inhibition at 10 μM [2] [%] | inhibition at 10 µM [2] [%] |
| --- | --- | --- | --- |
| 4-((4-(((Amino)iminomethyl)hydrazono)-9,10-dimethoxy-1,2,3,4,5,6-hexahydrobenz(e)azulen-8-yl)oxy)-butanoic Acid [EX. 2] | 450 | 19 |  |
| 4-((4-(((Amino)iminomethyl)hydrazono)-9,10-dimethoxy-1,2,3,4,5,6-hexahydrobenz(e)azulen-8-yl)oxy)-pentanoic Acid [EX. 3] | 2100 |  |  |
| COc1c(OCCC(NC(=O)OCc2ccccc2)C(=O)O)cc2c(c1OC)C1=C(CCC1)C(=NNC1=NCCN1)CC2 (racemic) [EX. 24, O-[4-[(4,5-dihydro-1H-imidazol-2-yl)hydrazono)-9,10-dimethoxy-1,2,3,4,5,6-hexahydro-8-benz(e)azulenyl]-N-[(phenylmethoxy)carbonyl]-DL-homoserine] | 30 |  | 18 |
| COc1c(OCCC(NC(=O)OCc2ccccc2)C(=O)OCC(O)CO)cc2c(c1OC)C1=C(CCC1)C(=NNC1=NCCCN1)CC2 (racemic) [EX. 27, (2,3-Dihydroxypropyl) Ester of O-(9,10-Dimethoxy1,2,3,4,5,6-hexahydro 4-[(1,4,5,6-tetrahydro2-pyrimidinyl)hydrazono]-8-benz(e)azulenyl]N-[(phenylmethoxy)carbonyl]DL-homoserine.] | 170 | 39 |  |
| COc1c(OCCC(NC(=O)OCc2ccccc2)C(=O)O)cc2c(c1OC)C1=C(CCC1)C(=NNC1=NC3CCCCC3N1)CC2 (racemic) [EX. 32, O-[9,10-Dimethoxy1,2,3,4,5,6-hexahydro4-[(3a,4,5,6,7,7a-hexahydro1H-benzimidazol-2-yl)hydrazono]8-benz(e)azulenyl]N-[(phenylmethoxy)carbonyl]DL-homoserine] | 35 |  |  |
| COc1c(OCCCCCC(=O)O)cc2c(c1OC)C1=C(CCC1)C(=NNC1=NCCN1)CC2 [EX. 8, 6-(4((4,5-Dihydro-1H-imidazolin-2-yl)hydrazono)-9,10-dimethoxy-1,2,3,4,5,6-hexahydro-8-benz(e)azulenyl)oxy)-hexanoic Acid] | 2790 |  |  |
| O=C(O)CCCOc1ccc2c(c1)CCC(=NNC1=NCCN1)C1=C2CCC1 [EX. 21, 4-(4((4,5-Dihydro-1H-imidazolin-2-yl)hydrazono)-1,2,3,4,5,6-hexahydro-8-benz(e)azulenyl)oxy)-butanoic Acid] | 37 |  |  |
| N=C(N)NN=C1CCc2cc(OCCCCC(=O)O)c3c(c2C2=C1CCC2)OCO3 [EX. 22, 5-((8-(((Amino)iminomethyl)hydrazono)-6,7,8,9,10,11-hexahydro-azuleno(5,6-d)-1,3-benzodioxol-4-yl)-oxy)-pentanoic Acid] | 2360 |  |  |

Stronger by IC50 [1], values ahead:

| IC50 [1] [nM] | Compound | Mouse cavarium % inhibition at 10 μM [2] [%] | inhibition at 10 µM [2] [%] |
| --- | --- | --- | --- |
| 6 | COc1c(OCCC(NC(=O)OCc2ccccc2)C(=O)O)cc2c(c1OC)C1=C(CCC1)C(=NNC1=NCCCN1)CC2 (racemic) |  | 30 |
| 13 | O=C(NC(CCOc1ccc2c(c1)CCC(=NNC1=NCCN1)C1=C2CCC1)C(=O)O)OCc1ccccc1 (racemic) [EX. 25, O-[4-[(4,5-Dihydro-1H-imidazol-2-yl)hydrazono)-1,2,3,4,5,6-hexahydro-8-benz(e)azulenyl]-N-[(phenylmethoxy)-carbonyl]-DL-homoserine] |  | 26 |
| 15 | COc1c(OCCC(NS(=O)(=O)c2cccc3cccnc23)C(=O)O)cc2c(c1OC)C1=C(CCC1)C(=NNC1=NCCN1)CC2 (racemic) [EX. 28, O-[4-[(4,5-Dihydro1H-imidazol-2-yl)hydrazono]9,10-dimethoxy 1,2,3,4,5,6-hexahydro8-benz(e)azulenyl]N-[(8-quinolinyl)sulphonyl]DL-homoserine] |  | 27 |
| 28 | COc1c(OCCC(NC(=O)OCCCn2cnc(-c3cccnc3)c2)C(=O)O)cc2c(c1OC)C1=C(CCC1)C(=NNC1=NCCN1)CC2 (racemic) [EX. 29, Monohydrochloride of O-[4-[(4,5-Dihydro1H-imidazol-2-yl)hydrazono]9,10-dimethoxy1,2,3,4,5,6-hexahydro8-benz(e)azulenyl]N-[[3-[4-(3-pyridinyl)1H-imidazol-1-yl]propoxy]carbonyl]DL-homoserine] |  | 18 |
